According to BindingDB's records for doi:10.1016/j.bmcl.2016.04.018 (Merck Research Laboratories, 2016):

Assay: Inhibition of human ERG expressed in HEK293 cells assessed as reduction in S35-MK-0499 binding

IC50: 8.34 µM
Structure (SMILES): O=C(Nc1cccc(Cl)c1)N1CCOc2ccc(-c3ccncc3)cc2C1
